Data taken from article PMC10251509, “Ultrafast Fragment Screening Using Photo-Hyperpolarized (CIDNP) NMR” (Journal of the American Chemical Society, 2023).
Like-named read-outs stand apart in the source and are kept apart here.

Legend:
Type in all cases: binding
PIN1 [1] = target: T1, PIN1 (Homo sapiens, UniProt Q13526); experiment: [15N,1H]-HSQC titration series with increasing ligand concentration, PIN1; settings: values with * could not be fitted to a maximum, Kd most likely higher
T1 construct: polyhistidine (N); made in house; host or cells: Escherichia coli BL21 (DE3)
Method: (B) Chemical shift perturbation titration studies of the compounds with ^15N-labeled PIN1 measured by [^15N,^1H]-HSQC experiments and shown for residues T154 and A124 in the presence of increasing ligand concentrations. […]
For the control binding experiments using ligand-induced chemical shift perturbation analysis, standard [^15N, ^1H]-HSQC spectra were measured. The detailed conditions for the 2D experiments acquired at 600 MHz ^1H NMR frequency were the 100 μM ^15N-labeled PDZ2 domain in the absence and presence of equimolar peptide in PDZ2 buffer and at a temperature of 298 K and 50 μM ^15N-labeled PIN1 in the absence and presence of 200 μM ligands in PIN1 buffer and at a temperature of 298 K, respectively. […] The data was zero–filled to 2048 points in the direct proton dimension and to 256 points in the ^15N–dimension. Processing was done with a shifted cosine window function for both dimensions. […] The spinlock times were set at 10 and 400 ms. The STD experiments were measured at 298 K with 16,384 (tmax (^1H) = 974 ms) complex points and 512 scans per increment.
Figure S7: Chemical shift perturbation-based Kd determination of individual compounds binding to PIN1. The chemical shift displacement of the 15N-1H moieties of A124 (black) and T154 (red) PIN1 (y-axis) in dependence on the compound […]
The fits to the titrations are highlighted by a line and the Kd extracted is given in mM. Compound 13 titration series ranges 0, 80, 100, 200, 300, 600, 1000, […]
concentration; compounds 3, 10, and 11 range 0, 200, 500, 1000, 2000, 3000 µM concentration and all the samples contained 80 µM of PIN1 protein and were measured in PIN1 buffer at 298K. […]

PIN1 [2] = target: T1, PIN1; experiment: saturation transfer difference (STD) NMR, PIN1; design: key to STD: The observation of ligand signals in the STD NMR spectra detects a protein–ligand interaction; (+); the absence of a signal fails to detect protein–ligand interaction (−); settings: 200 μM ligand with 20 μM protein
Method: For comparison, the signal decay during a T1ρ NMR experiment was measured at the same sample conditions as the photo-CIDNP experiments (Table 2). The signal decay between two T1ρ relaxation delays of 10 and 400 ms is measured in the absence and presence of the PIN1 protein. The increase in signal decay is calculated as the ratio of the integral’s ratio, i.e., (Γ400ms/Γ10ms)PL/(Γ400ms/Γ10ms)L. The most affine binders, compounds 1 and 13, show a significant reduction of the T1ρ decay ratio upon PIN1 addition, witnessing an increase in the relaxation decay. […] The signal-to-noise of the T1ρ spectra were ca. 300 for a number of transients of 512, corresponding to a measurement time of 25 min, while the photo-CIDNP experiments provided a signal-to-noise of ca. 100 for a single-scan experiment corresponding to a two second’s experiment. […] The signal-to-noise of the STD NMR experiments[1] was only 25 and 19 for compounds 1 and 13, respectively, after 50 min measurement corresponding to a 512 transient’s experiment.
For the control binding experiments using ligand-induced chemical shift perturbation analysis, standard [^15N, ^1H]-HSQC spectra were measured. The detailed conditions for the 2D experiments acquired at 600 MHz ^1H NMR frequency were the 100 μM ^15N-labeled PDZ2 domain in the absence and presence of equimolar peptide in PDZ2 buffer and at a temperature of 298 K and 50 μM ^15N-labeled PIN1 in the absence and presence of 200 μM ligands in PIN1 buffer and at a temperature of 298 K, respectively. Typically, 220 (t1,max (^15N) = 47.6 ms) × 1024 (t2,max (^1H) = 60.8 ms) complex points, an interscan delay of 0.8 s, and 12 scans per increment were measured. The data was zero–filled to 2048 points in the direct proton dimension and to 256 points in the ^15N–dimension. Processing was done with a shifted cosine window function for both dimensions. […] The spinlock times were set at 10 and 400 ms. The STD experiments were measured at 298 K with 16,384 (tmax (^1H) = 974 ms) complex points and 512 scans per increment. The on-resonance saturation pulse was set at 0 ppm, and the off-resonance saturation pulse was set to 40 ppm with a saturation time of 1 s.

PIN1 [3] = target: T1, PIN1; experiment: [15N,1H]-HSQC hit validation (chemical shift perturbations) on 15N-labeled PIN1; settings: 50 μM 15N-labeled PIN1, 200 μM fragment
Method: As proposed in the theoretical part, the photo-CIDNP traces were recorded in the presence and absence of PIN1. The peak intensity and chemical shifts were analyzed pairwise to identify the hits. […] The reference apo-PIN1 sample was spiked with 1.9 μL of DMSO to compensate for the DMSO that is introduced upon fragment addition, as the fragments are stored in stock solutions of 5 mM 90% DMSO-d6 and 10% D2O.
For the control binding experiments using ligand-induced chemical shift perturbation analysis, standard [^15N, ^1H]-HSQC spectra were measured. […] Processing was done with a shifted cosine window function for both dimensions. […] The spinlock times were set at 10 and 400 ms.

T1 sequence (Q13526 whole entry): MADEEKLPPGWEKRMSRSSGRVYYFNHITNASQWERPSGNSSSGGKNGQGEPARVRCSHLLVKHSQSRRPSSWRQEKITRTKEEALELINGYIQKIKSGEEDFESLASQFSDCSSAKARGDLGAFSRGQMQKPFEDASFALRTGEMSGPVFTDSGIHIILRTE

Kd (PIN1 [1]; fit of CSP build-up of residue A124, read-out: Kd A124): 4.5 mM
Kd (PIN1 [1]; fit of CSP build-up of residue T154, read-out: Kd T154): 1.7 mM
STD (PIN1 [2]): +
STD NMR observation (PIN1 [2]; 512 transients): shows a signal
fragment-induced CSPs in [15N,1H]-HSQC (PIN1 [3]): strong CSPs
median CSP (PIN1 [3]; median only of signals showing CSP): 0.119
SMILES: Cc1cccc(-c2nc(C)c(C(=O)O)[nH]2)c1 [Compound 13, reference compound]
